Experimental data published in patent US9278121B2, “Methods of use for an antimicrobial peptide” (priority 2013, dated 2016).
Values after ≈ are worked out from the molar mass of the structure shown. Read-outs that look alike come from different tables or passages of the source. Values belong to the compound of their own block, whether it stands above or below them. Where a SMILES comes first, the peptide text is derived from it.

How the values were obtained:
[1] = test system: P. aeruginosa (ATCC19660)
P. acnes [2] = assay: MIC test by microdilution assay against P. acnes; format: cell-based, Propionibacterium acnes
P. acnes [3] = conditions: background, literature; cited from earlier work
[4] = test system: P. aeruginosa derived from patient specimens
IL-8 = IL-8 mRNA in P. aeruginosa-infected human corneal epithelial cells; format: cell-based; conditions: HCET cells
Method: Human corneal epithelial cells (HCET cells) were exposed to 2×10^4 CFU/mL tympanitis-derived P. aeruginosa either in the presence or absence of antimicrobial peptides. Specifically, HP(2-20) and its derivatives HPA3NT3, ISFGW, and F1AF8A were added to samples at concentration of 3.2 μM. Moreover, a cathilocidin-derived peptide (P5) was also added to some conditions at a concentration of 1.6 μM.

M. furfur = assay: MIC microdilution assay against M. furfur
[5] = test system: P. aeruginosa derived from patient specimens; assay: microbe, parasite or virus in culture; conditions: Pseudomonas aeruginosa, read-out: MIC against P. aeruginosa
S. aureus = assay: microbe, parasite or virus in culture; conditions: Staphylococcus aureus
P. acnes [6] = assay: P. acnes-induced inflammatory response in ICR mouse ears; format: in vivo; conditions: ICR mice
Method: Right ears of ICR mice (Harlan, Indianapolis, Ind.) were intradermally injected with P. acnes (1×10^8 CFU per 20 μl in Phosphate-Buffered Saline (PBS)) with or without HPA3NT3 peptide (6.4 μM). Left ears of the same mice were injected with 20 μl of PBS. In negative control ICR mice, right ears remained untreated while left ears received intradermal injections of PBS. For histological observation, the cross-sectioned ear was stained with hematoxylin and eosin (Sigma) and viewed on a Zeiss Axioskop2 plus microscope (Carl Zeiss) 24 to 48 hours after injection. The increase in ear thickness was measured using a micro caliper (Mitutoyo 547-400S; MSI Viking Gage, Charleston, S.C.) prior to, and at 24, 48, and 72 hours post injection. The percent difference in ear thickness (right vs. left ear) was determined by an induced ear inflammation ratio (percent difference in the experimental ear divided by the percent difference in the control ears). Ten milligrams of tissue from an 8 mm biopsy that was punched from ears at 24 hours after P. acnes injection was homogenized in 250 μl of sterile PBS with a tissue grinder. CFUs of P. acnes were determined by plating serial dilutions of the homogenate on an agar plate under anaerobic conditions for 48 hours.

[7] = test system: human keratinocytes (HK cells)
in vitro = conditions: human, HK cells (human keratinocytes)
[8] = Cutibacterium acnes, strain ATCC6919, read-out: MIC against P. acnes
[9] = Cutibacterium acnes, strain ATCC11828, read-out: MIC against P. acnes
[10] = clinical isolate Patient #1 (tympanitis)
[11] = clinical isolate Patient #2 (tympanitis)

Structure (SMILES): CC[C@H](C)[C@H](NC(=O)CNC(=O)[C@@H](NC(=O)[C@H](CCCCN)NC(=O)[C@H](CCCCN)NC(=O)[C@H](Cc1ccccc1)NC(=O)[C@H](CC(C)C)NC(=O)[C@H](CCCCN)NC(=O)[C@H](Cc1c[nH]c2ccccc12)NC(=O)[C@@H](N)CCCCN)[C@@H](C)CC)C(=O)NCC(=O)N[C@@H](CCCCN)C(=O)N[C@@H](Cc1ccccc1)C(=O)N[C@@H](CC(C)C)C(=O)N[C@@H](Cc1c[nH]cn1)C(=O)N[C@@H](CO)C(=O)N[C@@H](C)C(=O)N[C@@H](CCCCN)C(=O)N[C@@H](CCCCN)C(=O)N[C@@H](Cc1ccccc1)C(N)=O [CA-MA] (H-KWKLFKKIGIGKFLHSAKKF-NH2)
MIC against P. aeruginosa (ATCC19660) [1]: 1.562 µM (≈ 3.76 µg/mL)

MIC (P. acnes [2]; [8]): 125 µM (≈ 30.3 µg/mL) | MIC (P. acnes [2]; [9]): 62.5 µM (≈ 15.1 µg/mL) | MIC (P. acnes [2]; Cutibacterium acnes, text summary of Table 1A, strain not named, read-out: MIC value against P. acnes): 62.5 µM (≈ 15.1 µg/mL)
Structure (SMILES): O=C(OOC(=O)c1ccccc1)c1ccccc1 [Benzoyl Peroxide, benzoyl peroxide]
minimal inhibitory concentration (MIC) (P. acnes [3]): 150 µg/mL (≈ 619 µM)

Structure (SMILES): CC[C@H](C)[C@H](NC(=O)CN)C(=O)NCC(=O)N[C@@H](C)C(=O)N[C@H](C(=O)N[C@@H](CC(C)C)C(=O)N[C@@H](CCCCN)C(=O)N[C@H](C(=O)N[C@@H](CC(C)C)C(=O)N[C@H](C(=O)N[C@H](C(=O)NCC(=O)N[C@@H](CC(C)C)C(=O)N1CCC[C@H]1C(=O)N[C@@H](C)C(=O)N[C@@H](CC(C)C)C(=O)N[C@H](C(=O)N[C@@H](CO)C(=O)N[C@@H](Cc1c[nH]c2ccccc12)C(=O)N[C@H](C(=O)N[C@@H](CCCCN)C(=O)N[C@@H](CCCNC(=N)N)C(=O)N[C@@H](CCCCN)C(=O)N[C@@H](CCCNC(=N)N)C(=O)N[C@@H](CCC(N)=O)C(=O)N[C@@H](CCC(N)=O)C(N)=O)[C@@H](C)CC)[C@@H](C)CC)[C@@H](C)O)[C@@H](C)O)C(C)C)C(C)C [Melittin]
MIC against P. aeruginosa [4, 10]: 8 µg/mL (≈ 2.81 µM) | MIC against P. aeruginosa [4, 11]: 16 µg/mL (≈ 5.62 µM)

MIC against P. aeruginosa (ATCC19660) [1]: 0.78 µM (≈ 1.75 µg/mL)
Structure (SMILES): CC(C)C[C@H](NC(=O)[C@H](CCCCN)NC(=O)[C@H](CCCCN)NC(=O)[C@H](CC(C)C)NC(=O)[C@H](CC(C)C)NC(=O)[C@H](CCCCN)NC(=O)[C@H](CCCCN)NC(=O)[C@H](CC(C)C)NC(=O)[C@H](CC(C)C)NC(=O)[C@@H]1CCCN1C(=O)[C@H](CCCCN)NC(=O)[C@H](CCCCN)NC(=O)[C@H](CC(C)C)NC(=O)[C@H](CC(C)C)NC(=O)[C@H](CCCCN)NC(=O)[C@H](CCCCN)NC(=O)[C@H](Cc1c[nH]c2ccccc12)NC(=O)[C@@H](N)CCCCN)C(N)=O [p5] (H-KWKKLLKKPLLKKLLKKL-NH2; N-terminus and C-terminus assumed)

Structure (SMILES): CC[C@H](C)[C@H](NC(=O)[C@H](CCCCN)NC(=O)[C@H](CO)NC(=O)[C@H](Cc1ccccc1)NC(=O)[C@H](CC(C)C)NC(=O)[C@H](CCCCN)NC(=O)[C@H](CCC(=O)O)NC(=O)[C@H](CC(C)C)NC(=O)[C@H](CCCNC(=N)N)NC(=O)[C@H](CCCCN)NC(=O)[C@H](Cc1ccccc1)NC(=O)[C@@H](NC(=O)[C@H](CCCCN)NC(=O)[C@H](CCCCN)NC(=O)[C@H](C)N)C(C)C)C(=O)N[C@@H](CCC(N)=O)C(=O)N[C@@H](CC(N)=O)C(=O)N[C@@H](CC(=O)O)C(=O)N[C@@H](CCCCN)C(N)=O [HP(2-20)] (H-AKKVFKRLEKLFSKIQNDK-NH2; N-terminus and C-terminus assumed)
MIC (P. acnes [2]; text summary of Table 1A, strain not named, read-out: MIC value against P. acnes): 0.8 µM (≈ 1.86 µg/mL) | P. aeruginosa infection induced IL-8 expression (mRNA) (IL-8; 3.2 μM, 24 hours): significantly inhibited | expression of IL-8, peptide without P. aeruginosa (IL-8; data not shown): did not impact the expression of IL-8 | MIC against M. furfur (M. furfur): < 0.195 µM

Structure (SMILES): CN[C@H](CC(C)C)C(=O)N[C@H]1C(=O)N[C@@H](CC(N)=O)C(=O)N[C@H]2C(=O)N[C@H]3C(=O)N[C@H](C(=O)N[C@H](C(=O)O)c4cc(O)cc(O)c4-c4cc3ccc4O)[C@H](O)c3ccc(c(Cl)c3)Oc3cc2cc(c3O[C@@H]2O[C@H](CO)[C@@H](O)[C@H](O)[C@H]2O[C@H]2C[C@](C)(N)[C@H](O)[C@H](C)O2)Oc2ccc(cc2Cl)[C@H]1O [Vancomycin, vancomycin]
MIC against P. aeruginosa [4, 11]: >32 µg/mL | MIC [5]: > 32 µg/mL

Structure (SMILES): CC(C)(O/N=C(\C(=O)N[C@@H]1C(=O)N2C(C(=O)[O-])=C(C[n+]3ccccc3)CS[C@H]12)c1csc(N)n1)C(=O)O [Ceftazidime, ceftazidime]
MIC against P. aeruginosa [4, 11]: >32 µg/mL | MIC [5]: > 32 µg/mL

MIC (P. acnes [2]; [8]): < 0.2 µM | MIC (P. acnes [2]; [9]): < 0.2 µM | MIC (S. aureus; ATCC8096, read-out: MIC against S. aureus): > 50 µM | MIC (S. aureus; ATCC25923, read-out: MIC against S. aureus): > 50 µM | MIC (S. aureus; ATCC29213, read-out: MIC against S. aureus): > 50 µM
Structure (SMILES): CCC[C@@H]1C[C@@H](C(=O)N[C@@H]([C@H]2O[C@H](SC)[C@H](O)[C@@H](O)[C@H]2O)[C@H](C)Cl)N(C)C1 [Clindamycin, clindamycin]

Structure (SMILES): CC[C@H](C)[C@H](NC(=O)[C@H](CCCCN)NC(=O)[C@H](CCC(=O)O)NC(=O)[C@H](CCCCN)NC(=O)[C@H](CO)NC(=O)[C@H](CCCCN)NC(=O)[C@H](CCCNC(=N)N)NC(=O)[C@H](Cc1ccccc1)NC(=O)[C@H](Cc1ccccc1)NC(=O)[C@H](CC(=O)O)NC(=O)CNC(=O)[C@H](CC(C)C)NC(=O)[C@@H](N)CC(C)C)C(=O)NCC(=O)N[C@@H](CCCCN)C(=O)N[C@@H](CCC(=O)O)C(=O)N[C@@H](Cc1ccccc1)C(=O)N[C@@H](CCCCN)C(=O)N[C@@H](CCCNC(=N)N)C(=O)N[C@H](C(=O)N[C@H](C(=O)N[C@@H](CCC(N)=O)C(=O)N[C@@H](CCCNC(=N)N)C(=O)N[C@H](C(=O)N[C@@H](CCCCN)C(=O)N[C@@H](CC(=O)O)C(=O)N[C@@H](Cc1ccccc1)C(=O)N[C@@H](CC(C)C)C(=O)N[C@@H](CCCNC(=N)N)C(=O)N[C@@H](CC(N)=O)C(=O)N[C@@H](CC(C)C)C(=O)N[C@H](C(=O)N1CCC[C@H]1C(=O)N[C@@H](CCCNC(=N)N)C(=O)N[C@H](C(=O)N[C@@H](CCC(=O)O)C(=O)N[C@@H](CO)C(=O)O)[C@@H](C)O)C(C)C)[C@@H](C)CC)C(C)C)[C@@H](C)CC [LL37]
MIC against P. aeruginosa [4, 10]: >32 µg/mL | MIC against P. aeruginosa [4, 11]: >32 µg/mL

Structure (SMILES): CC[C@H](C)[C@H](NC(=O)[C@H](CCCCN)NC(=O)[C@H](CCCCN)NC(=O)[C@H](Cc1ccccc1)NC(=O)[C@H](CC(C)C)NC(=O)[C@H](CCCCN)NC(=O)[C@H](CCCCN)NC(=O)[C@H](CC(C)C)NC(=O)[C@H](CCCNC(=N)N)NC(=O)[C@H](CCCCN)NC(=O)[C@@H](N)Cc1ccccc1)C(=O)N[C@@H](Cc1c[nH]c2ccccc12)C(=O)N[C@@H](CC(N)=O)C(=O)N[C@@H](Cc1c[nH]c2ccccc12)C(=O)N[C@@H](CCCCN)C(=O)O [HPA3NT3] (H-FKRLKKLFKKIWNWK-OH)
ear thickness or inflammation, peptide alone (histology) (P. acnes [6]): did not affect ear thickness or inflammation | erythema or ear swelling, peptide in uninfected ears (P. acnes [6]): no significant changes | MIC against P. aeruginosa ([4]; derived from patient specimens): 16 µg/mL (≈ 7.75 µM) | Cell viability [7]: 100% | cytotoxicity to HK cells [7]: only minimal cytotoxicity | viability at 24 h, 1.6 µM (in vitro): 100% | viability at 24 h, 3.2 µM (in vitro): 100% | viability at 24 h, 6.4 µM (in vitro): 100%
